Like-named read-outs stand apart in the source and are kept apart here.
What was measured:
HTT mRNA = test: Splicing RT-qPCR assay, HTT canonical (CJ) and alternative (AJ) junction mRNA; format: cell-based, human; conditions: Homo sapiens, A673 or K562 cells, 24 hours compound treatment; for IC50: 24 h, read-out: HTT CJ (IC50, decrease in canonical junction mRNA); for AC50: read-out: HTT AJ (AC50, increase in alternative junction mRNA)
Experimental: (§1) Compounds described herein were used to modulate RNA transcript abundance in cells. The expression of a target mRNA was measured by detecting the formation of an exon-exon junction in the canonical transcript (CJ). A compound mediated exon-inclusion event was detected by observing an increase in formation of a new junction with an alternative exon (AJ). Real-time qPCR assays were used to detect these splicing switches and interrogate the potency of various compounds towards different target genes. A high-throughput real time quantitative PCR (RT-qPCR) assay was developed to measure these two isoforms of the mRNA (CJ and AJ) for exemplary genes, such as HTT, SMN2, and MYB, together with a control housekeeping gene, GAPDH or GUSB or PPIA, used for normalization. Briefly, the A673 or K562 cell line was treated with various compounds described herein (e.g., compounds of Formula (I)). After treatment, the levels of the HTT, MYB, or SMN2 mRNA targets were determined from each sample of cell lysate by cDNA synthesis followed by qPCR.
(§2) • Cells-to-CT 1-step kit: ThermoFisher A25602, Cells-to-CT lysis reagent: ThermoFisher 4391851C, TaqMan™ Fast Virus 1-Step Master Mix: ThermoFisher 4444436 • GAPDH: VIC-PL, ThermoFisher 4326317E (Assay: Hs99999905_m1)—used for K562/suspension cell lines • GUSB: VIC-PL, ThermoFisher 4326320E (Assay: Hs99999908_m1)—used for K562/suspension cell lines • PPIA: VIC-PL, ThermoFisher 4326316E (Assay: Hs99999904_m1)—used for A673/adherent cell lines
(§3) The A673 cell line was cultured in DMEM with 10% FBS. Cells were diluted with full growth media and plated in a 96-well plate (15,000 cells in 100 ul media per well). The plate was incubated at 37° C. with 5% CO2 for 24 hours to allow cells to adhere. An 11-point 3-fold serial dilution of the compounds was made in DMSO then diluted in media in an intermediate plate. Compounds were transferred from the intermediate plate to the cell plate with the top dose at a final concentration of 10 uM in the well. Final DMSO concentration was kept at or below 0.25%. The cell plate was returned to the incubator at 37° C. with 5% CO2 for an additional 24 hours.
(§4) The K562 cell line was cultured in IMDM with 10% FBS. For K562, cells were diluted with full growth media and plated in either a 96-well plate (50,000 cells in 50 uL media per well) or a 384-well plate (8,000-40,000 cells in 45 uL media per well). An 11-point 3-fold serial dilution of the compounds were made in DMSO then diluted in media in an intermediate plate. Compound was transferred from the intermediate plate to the cell plate with the top dose at a final concentration of 10 uM in the well. Final DMSO concentration was kept at or below 0.25%. Final volume was 100 uL for 96-well plate and 50 uL for 384-well plate. The cell plate was then placed in an incubator at 37° C. with 5% CO2 for 24 hours.
(§5) The cells were then gently washed with 50 uL-100 uL cold PBS before proceeding to addition of lysis buffer. 30 uL-50 uL of room temperature lysis buffer with DNAse I (and optionally RNAsin) was added to each well. Cells were shaken/mixed thoroughly at room temperature for 5-10 minutes for lysis to take place and then 3 uL-5 uL of room temperature stop solution was added and wells were shaken/mixed again. After 2-5 minutes, the cell lysate plate was transferred to ice for RT-qPCR reaction setup. The lysates could also be frozen at −80° C. for later use.
(§6) In some cases, a direct lysis buffer was used. An appropriate volume of 3× lysis buffer (10 mM Tris, 150 mM NaCl, 1.5%-2.5% Igepal and 0.1-1 U/uL RNAsin, pH 7.4) was directly added to either K562 or A673 cells in media and mixed by pipetting 3 times. The plates were then incubated at room temperature with shaking/rocking for 20-50 minutes to allow for lysis to take place. After this time, the cell lysate plate was transferred to ice to set up for the RT-qPCR reactions. The lysates could also be frozen at −80° C. for later use. […]

MYB mRNA = test: Splicing RT-qPCR assay, MYB canonical (CJ) and alternative (AJ) junction mRNA; format: cell-based, human; conditions: A673 or K562 cells, 24 hours compound treatment, RT-qPCR; for AC50: read-out: MYB AJ (AC50, increase in alternative junction mRNA); for IC50: read-out: MYB CJ (IC50, decrease in canonical junction mRNA)
Experimental: as §1, §2, §3, §4, §5, §6

IC50 (HTT mRNA) [µM]	IC50 (MYB mRNA; Homo sapiens, 24 h) [µM]	IC50 (MYB mRNA) [µM]	SMILES	AC50 (HTT mRNA) [µM]	AC50 (MYB mRNA; Homo sapiens, 24 h) [µM]	AC50 (MYB mRNA) [µM]
> 10	0.1 to 1	–	CCNC1CCN(c2ccc(C(=O)Nc3cc(F)c4nc(C)cn4c3)c3nn(CC)cc23)C1 (stereo in doubt) [Compound 399, (S)-2-ethyl-4-(3-(ethylamino)pyrrolidin-1-yl)-N-(8-fluoro-2-methylimidazo[1,2-a]pyridin-6-yl)-2H-indazole-7-carboxamide]	> 10	0.1 to 1	–
> 10	< 0.1	–	CCNC1CCN(c2ccc(C(=O)Nc3cc(F)c4nc(C)cn4c3)c3nn(CC)cc23)C1 (stereo in doubt) [Compound 400, (R)-2-ethyl-4-(3-(ethylamino)pyrrolidin-1-yl)-N-(8-fluoro-2-methylimidazo[1,2-a]pyridin-6-yl)-2H-indazole-7-carboxamide]	> 10	< 0.1	–
> 10	> 10	–	Cc1cn2cc(NC(=O)c3ccc(N4CCc5[nH]ccc5C4)c4cn(C)nc34)cc(F)c2n1 [Compound 390, N-{8-fluoro-2-methylimidazo[1,2-a]pyridin-6-yl}-2-methyl-4-{1H,4H,6H,7H-pyrrolo[3,2-c]pyridin-5-yl}indazole-7-carboxamide]	> 10	> 10	–
> 10	< 0.1	–	Cc1cn2cc(NC(=O)c3ccc(N4CCNCC4)c4cn(C5CCC5)nc34)cc(F)c2n1 [Compound 391, 2-cyclobutyl-N-{8-fluoro-2-methylimidazo[1,2-a]pyridin-6-yl}-4-(piperazin-1-yl) indazole-7-carboxamide]	1 to 10	0.1 to 1	–
1 to 10	< 0.1	–	C=CCn1cc2c(N3CCNCC3)ccc(C(=O)Nc3cc(F)c4nc(C)cn4c3)c2n1 [Compound 392, N-{8-fluoro-2-methylimidazo[1,2-a]pyridin-6-yl}-4-(piperazin-1-yl)-2-(prop-2-en-1-yl) indazole-7-carboxamide]	1 to 10	< 0.1	–
> 10	–	0.1 to 1	CCn1cc2c(N3CC[C@@H](NC)C3)ccc(C(=O)Nc3cc(F)c4nc(C)cn4c3)c2n1 [Compound 393, (R)-2-ethyl-N-(8-fluoro-2-methylimidazo[1,2-a]pyridin-6-yl)-4-(3-(methylamino)pyrrolidin-1-yl)-2H-indazole-7-carboxamide]	> 10	–	0.1 to 1
1 to 10	0.1 to 1	–	CCn1cc2c(N3CCC4(CCN4)CC3)ccc(C(=O)Nc3cc(F)c4nc(C)cn4c3)c2n1 [Compound 394, 4-{1,7-diazaspiro[3.5]nonan-7-yl}-2-ethyl-N-{8-fluoro-2-methylimidazo[1,2-a]pyridin-6-yl}indazole-7-carboxamide]	1 to 10	0.1 to 1	–
1 to 10	< 0.1	–	CCn1cc2c(N3CCC(N(C)C)CC3)ccc(C(=O)Nc3cc(F)c4nc(C)cn4c3)c2n1 [Compound 395, 4-[4-(dimethylamino)piperidin-1-yl]-2-ethyl-N-{8-fluoro-2-methylimidazo[1,2-a]pyridin-6-yl}indazole-7-carboxamide]	1 to 10	< 0.1	–
> 10	0.1 to 1	–	CCNC1CCN(c2ccc(C(=O)Nc3cc(F)c4nc(C)cn4c3)c3nn(CC)cc23)C1 (centres unmarked) [Compound 396, 2-ethyl-4-[3-(ethylamino)pyrrolidin-1-yl]-N-{8-fluoro-2-methylimidazo[1,2-a]pyridin-6-yl}indazole-7-carboxamide]	> 10	< 0.1	–
1 to 10	0.1 to 1	–	Cc1cn2cc(NC(=O)c3ccc(N4CCC(N)(CF)CC4)c4cn(C)nc34)cc(F)c2n1 [Compound 397]	1 to 10	0.1 to 1	–
> 10	0.1 to 1	–	CCn1cc2c(N3CCC(NC4CC4)C3)ccc(C(=O)Nc3cc(F)c4nc(C)cn4c3)c2n1 (centres unmarked) [Compound 398, 4-[3-(cyclopropylamino)pyrrolidin-1-yl]-2-ethyl-N-{8-fluoro-2-methylimidazo[1,2-a]pyridin-6-yl}indazole-7-carboxamide]	> 10	0.1 to 1	–
0.1 to 1	< 0.1	–	CCn1cc2c(N3CCC4(CC3)CCN4C)ccc(C(=O)Nc3cc(F)c4nc(C)cn4c3)c2n1 [Compound 401, 2-ethyl-N-(8-fluoro-2-methylimidazo[1,2-a]pyridin-6-yl)-4-(1-methyl-1,7-diazaspiro[3.5]nonan-7-yl)-2H-indazole-7-carboxamide 2,2,2-trifluoroacetate]	0.1 to 1	< 0.1	–
0.1 to 1	< 0.1	–	Cc1cn2cc(NC(=O)c3ccc(N4CCC(N)CC4)c4cn(C)nc34)cc(F)c2n1 [Compound 402, 4-(4-aminopiperidin-1-yl)-N-{8-fluoro-2-methylimidazo[1,2-a]pyridin-6-yl}-2-methylindazole-7-carboxamide]	0.1 to 1	< 0.1	–
1 to 10	0.1 to 1	–	CCn1cc2c(N3CCNC(CO)C3)ccc(C(=O)Nc3cc(F)c4nc(C)cn4c3)c2n1 (centres unmarked) [Compound 403, 2-ethyl-N-{8-fluoro-2-methylimidazo[1,2-a]pyridin-6-yl}-4-[3-(hydroxymethyl)piperazin-1-yl]indazole-7-carboxamide]	1 to 10	0.1 to 1	–
1 to 10	< 0.1	–	Cc1nc2c(C)nc(NC(=O)c3ccc(N4CCNCC4)c4cn(C)nc34)cc2o1 [Compound 405, N-{2,4-dimethyl-[1,3]oxazolo[4,5-c]pyridin-6-yl}-2-methyl-4-(piperazin-1-yl) indazole-7-carboxamide]	1 to 10	0.1 to 1	–
0.1 to 1	< 0.1	–	Cn1cc2c(N3CCNCC3)ccc(C(=O)Nc3cc(F)c4nc(CO)oc4c3)c2n1 [Compound 406, N-[4-fluoro-2-(hydroxymethyl)-1,3-benzoxazol-6-yl]-2-methyl-4-(piperazin-1-yl) indazole-7-carboxamide]	0.1 to 1	< 0.1	–
1 to 10	< 0.1	–	CCn1cc2c(N3CC[C@H](NC)C3)cc(F)c(C(=O)Nc3cc(F)c4nc(C)cn4c3)c2n1 [Compound 478, 2-ethyl-6-fluoro-N-{8-fluoro-2-methylimidazo[1,2-a]pyridin-6-yl}-4-[(3S)-3-(methylamino)pyrrolidin-1-yl]indazole-7-carboxamide; bis(trifluoroacetic acid)]	> 10	0.1 to 1	–
